# Measurements taken from patent publication US12679903B2, “Antibody for specifically binding to lysyl-tRNA synthetase N-terminal domain exposed to extracellular membrane” (Zymedi Co., Ltd., priority 2018, dated 2026).
# Key:
# Format in all cases: in vivo, SD rats
# [1] = system: pulmonary arterial hypertension (PAH) models; assay: PAH model, echocardiography; settings: MCT PAH rats
# Description: (§1) To induce PAH in 7-week-old SD rats (Oriental Bio), 60 mpk of MCT (monocrotaline) were subcutaneously injected. Thereafter, the rats were divided into four groups (tested with five animals in each group), and were administrated with 1mpk of Mock human IgG (Thermo Fisher Scientific, negative control), 1mpk of N3 IgG antibody, 10mpk of N3 IgG antibody, and 25 mpk of sildenafil (positive control) for 3 weeks. All antibodies were i.v. injected twice a week and sildenafil was orally administered every day.
# [2] = PAH model, body weight and abnormal signs; settings: MCT + Sildenafil
# Description: as §1
# [3] = system: pulmonary arterial hypertension (PAH) models; assay: PAH model, blood flow and blood pressure measurement; settings: MCT + Sildenafil 25 mpk, orally every day, 3 weeks
# Description: as §1
# After three weeks, the rats were anesthetized with isoflurane, and blood flow and pressure were measured using an MPVS Cardiovascular Pressure and Volume system (model name: MPVS Ultra, manufacturer: Millar Instruments). The right ventricular end-systolic pressure (RVESP), right ventricular end-diastolic pressure, left ventricular end-systolic pressure, left ventricular end-diastolic pressure were measured using an exclusive catheter (Mikro-Tip rat pressure catheter, manufacturer: Millar Instruments). The cardiac output was measured using a perivascular blood flow probe (Transonic Flow probes, manufacturer: […]), and experimental method thereof was performed by the same method as disclosed in the following literature: Pacher P, Nagayama T, Mukhopadhyay P, Batkai S, Kass DA. Measurement of cardiac function using pressure-volume conductance catheter technique in mice and rats. Nat Protoc 2008; 3 (9): 1422-34.
smiles,measurement,setting,value
"CCCc1nn(C)c2c(=O)[nH]c(-c3cc(S(=O)(=O)N4CCN(C)CC4)ccc3OCC)nc12 [Sildenafil, sildenafil]",D-shaped left ventricle indicating pressure overload in the right ventricle,[1],three animals
same,"body weight, Absolute change",[2],104.1 ± 26.4 g
same,"body weight, Relative change",[2],49.8 ± 10.5%
same,CO,[3],49.6 ± 17.7 mL/min
same,LVEDP,[3],3.6 ± 2.3 mmHg
same,LVESP,[3],83.2 ± 4.7 mmHg
same,RVEDP,[3],2.6 ± 1.3 mmHg
same,RVESP,[3],48.4 ± 9.6 mmHg
